Source: patent US6835386B2, “Collar containing a novel gel formulation to control arthropod infestation of animals” (Pfizer Inc., priority 1998, dated 2004)

Assay: Miscibility of insecticide in gel formulation
Type: physicochemical
Description: Thus, the improved gel formulation allows permeation of an effective amount of the active ingredient to occur in about 3 days, as compared to about 3 to 5 weeks for prior formulations. As a result of this shortened initial permeation period, the device is ready for use more quickly after manufacture, thereby reducing or eliminating the amount of time that such devices must be stored prior to use. Additional advantages of the device of the present invention include eliminating several of the problems associated with the use of a mineral oil-based gel, such as leaving an oily residue on the animal, the potential for triggering skin irritations, and inhibiting the process of sealing the reservoir. In addition, insecticides such as cypermethrin which are not miscible in mineral oil-based gels are miscible in the improved gel formulation of the present invention.

## CC1(C)C(C=C(Cl)Cl)C1C(=O)OC(C#N)c1cccc(Oc2ccccc2)c1 (centres unmarked) [cypermethrin]
In mineral oil-based gels
  Miscibility: not miscible
In the improved gel formulation of the present invention
  Miscibility: miscible
